# From patent publication US11046672B2, “Indolinones compounds and their use in the treatment of fibrotic diseases” (RESPIVERT LIMITED, priority 2015, dated 2021)
# Assays:
# MRC5 cells = experiment: Cell viability assay in MRC5 cells (MTT)
# PDGFRβ [1] = molecular target: T1, PDGFRβ (Homo sapiens (Human), UniProt P09619); settings: read-out: Ki PDGFRβ; mean, n = 2 unless otherwise indicated
# PDGFRβ [2] = molecular target: T1, PDGFRβ; experiment: PDGF-BB induced phosphorylation of PDGFRβ in fibroblasts (MRC5 cells, HTRF); type: cell-based; settings: MRC5 cells; n = 1 unless otherwise indicated; read-out: PDGFBB-induced PDGFRβ phosphorylation in MRC5 cells (IC50)
# PAMPA permeability assay = type: in vitro ADME; settings: PAMPA; for recovery at 5 hr, 10 μM: donor and acceptor compartments; for Papp at 5 h, 10 μM: pH 7, pH 7, 10 μM
# PDGFRβ [3] = molecular target: T1, PDGFRβ; experiment: Duration of action (washout) against PDGF-BB induced phosphorylation of PDGFRβ in human fetal lung fibroblast cells; type: cell-based; settings: MRC-5 cells, after wash-out, rhuPDGF-BB; experiments in Groups 1-4
# T1 sequence (P09619 33-1106): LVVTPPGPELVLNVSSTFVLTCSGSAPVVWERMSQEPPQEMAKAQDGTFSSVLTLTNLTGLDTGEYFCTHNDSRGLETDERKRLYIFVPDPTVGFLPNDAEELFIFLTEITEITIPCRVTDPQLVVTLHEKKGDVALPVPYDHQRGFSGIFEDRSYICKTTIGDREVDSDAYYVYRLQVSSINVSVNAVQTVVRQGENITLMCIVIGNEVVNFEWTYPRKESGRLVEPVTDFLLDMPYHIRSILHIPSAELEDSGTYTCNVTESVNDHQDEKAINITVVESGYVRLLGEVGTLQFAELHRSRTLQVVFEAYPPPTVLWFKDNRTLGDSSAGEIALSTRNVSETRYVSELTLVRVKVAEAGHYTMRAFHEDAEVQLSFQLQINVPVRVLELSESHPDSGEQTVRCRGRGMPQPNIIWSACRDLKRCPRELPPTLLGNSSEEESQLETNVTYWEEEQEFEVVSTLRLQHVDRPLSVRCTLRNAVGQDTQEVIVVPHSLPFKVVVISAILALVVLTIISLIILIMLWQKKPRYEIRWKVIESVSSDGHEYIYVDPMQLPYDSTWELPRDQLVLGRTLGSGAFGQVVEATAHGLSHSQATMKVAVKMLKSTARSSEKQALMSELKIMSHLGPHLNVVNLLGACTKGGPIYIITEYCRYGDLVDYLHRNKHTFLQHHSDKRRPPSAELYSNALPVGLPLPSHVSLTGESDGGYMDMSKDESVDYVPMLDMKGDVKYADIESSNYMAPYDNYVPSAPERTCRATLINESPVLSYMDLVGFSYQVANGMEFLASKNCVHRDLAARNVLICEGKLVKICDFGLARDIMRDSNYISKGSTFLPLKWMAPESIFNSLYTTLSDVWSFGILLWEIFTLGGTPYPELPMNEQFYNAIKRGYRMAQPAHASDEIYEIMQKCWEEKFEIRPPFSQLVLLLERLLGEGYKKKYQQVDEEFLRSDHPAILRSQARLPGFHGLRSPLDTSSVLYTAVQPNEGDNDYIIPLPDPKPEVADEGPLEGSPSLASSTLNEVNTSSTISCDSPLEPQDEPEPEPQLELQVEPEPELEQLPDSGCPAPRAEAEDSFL
Ki (PDGFRβ [1]) [nM],IC50 (PDGFRβ [2]) [nM],"recovery at 5 hr, 10 μM (PAMPA permeability assay; pH 7, PAMPA) [%]","Papp at 5 h, 10 μM (PAMPA permeability assay) [×10⁻⁶ cm/s]",% phos: percentage phosphorylation after wash-out relative to maximal phosphorylation (100%) (PDGFRβ [3]) [%],SMILES,Cell viability at 100 nM (%) (MRC5 cells),Cell viability at 300 nM (%) (MRC5 cells),Cell viability at 1000 nM (%) (MRC5 cells),"recovery at 5 hr, 10 μM (PAMPA permeability assay; pH 7) [%]"
17,21.8,76.2,0.279,,COC(=O)c1cc2c(cc1C)/C(=C(/Nc1ccc(C(=O)NOCCN3CCC(OC)CC3)cc1)c1ccccc1)C(=O)N2 [Example 52],62,50.9,59.8,
7.19,3.95,69.7,0.719,,COC(=O)c1cc2c(cc1C)/C(=C(/Nc1ccc(C(=O)N(C)OCCN(C)CCO)cc1)c1ccccc1)C(=O)N2 [Example 56],132,121,70.5,
9.84,5.04,50.5,0.688,73.1,COC(=O)c1cc2c(cc1C)/C(=C(/Nc1ccc(C(=O)N(C)OCCN3CCNCC3)cc1)c1ccccc1)C(=O)N2 [Example 57],123.5,123.2,91.2,
8.87,4.06,49.5,0.0296,,COC(=O)c1cc2c(cc1C)/C(=C(/Nc1ccc(C(=O)N(C)OCCN3CCN(CCO)CC3)cc1)c1ccccc1)C(=O)N2 [Example 58],110.2,116.9,55.6,
9.19,25.4,69.6,0.0364,,COC(=O)c1cc2c(cc1C)/C(=C(/Nc1ccc(C(=O)N(C)OCCN3C[C@@H]4C[C@H]3CN4)cc1)c1ccccc1)C(=O)N2 [Example 59],123.5,107.7,103.8,

SMILES,Ki (PDGFRβ [1]) [nM],IC50 (PDGFRβ [2]) [nM],"recovery at 5 hr, 10 μM (PAMPA permeability assay; pH 7, PAMPA) [%]","Papp at 5 h, 10 μM (PAMPA permeability assay) [×10⁻⁶ cm/s]",% phos: percentage phosphorylation after wash-out relative to maximal phosphorylation (100%) (PDGFRβ [3]) [%],Cell viability at 100 nM (%) (MRC5 cells),Cell viability at 300 nM (%) (MRC5 cells),Cell viability at 1000 nM (%) (MRC5 cells),"recovery at 5 hr, 10 μM (PAMPA permeability assay; pH 7) [%]"
COC(=O)c1cc2c(cc1C)/C(=C(/Nc1ccc(C(=O)N(C)OCCN3C4CCC3CNC4)cc1)c1ccccc1)C(=O)N2 [Example 60],13,5.6,,0.0503,,88.8,84.4,0.2,69.2
COC(=O)c1cc2c(cc1C)/C(=C(/Nc1ccc(C(=O)N(C)OCCN3CC4CCC(C3)N4)cc1)c1ccccc1)C(=O)N2 [Example 61],18.3,7.84,,0.0205,,83,86.6,35.2,64.4
